From ChEMBL document CHEMBL1201862, “PubChem BioAssay data set” (2004)
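Step 1: Grow cells in 96-well plates. Step 2: Expose to compound for 48 hours at 5 concentrations. Step 3: Interpolate endpoints linearly; if unreached, use highest concentration. Here, GI50 denotes the concentration required for 50% inhibition of growth.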 Calls of active or inactive are those of the source. Rule as the data show it: active = GI50 up to about 1.1 µM and inactive = higher.

How the values were obtained:
Assay in all cases: inhibition of tumour cell growth, NCI panel, 48 h
NCI/ADR-RES = system: NCI/ADR-RES
A498 = system: A498
EKVX = system: EKVX
U-251 = system: U-251
UACC-62 = system: UACC-62
SF-268 = system: SF-268
A549 = system: A549
SF-539 = system: SF-539
K562 = system: K562
HCC 2998 = system: HCC 2998
HOP-92 = system: HOP-92
MDA-MB-231 = system: MDA-MB-231
SK-OV-3 = system: SK-OV-3
DU-145 = system: DU-145
ACHN = system: ACHN
MOLT-4 = system: MOLT-4
IGROV-1 = system: IGROV-1
Hs-578T = system: Hs-578T
LOX IMVI = system: LOX IMVI
T47D = system: T47D

Measured: GI50

COc1ccc(OC)c(N2C(=O)CSC2c2cc(OC)c(OC)c(OC)c2)c1 (configuration not stated)
inactive: NCI/ADR-RES > 100 µM | A498 > 100 µM | EKVX > 100 µM | U-251 > 100 µM | UACC-62 > 100 µM | SF-268 > 100 µM | A549 > 100 µM | SF-539 > 100 µM | K562 83.8 µM | HCC 2998 > 100 µM | HOP-92 > 100 µM | MDA-MB-231 > 100 µM | SK-OV-3 > 100 µM | DU-145 > 100 µM | ACHN > 100 µM | MOLT-4 > 100 µM | IGROV-1 > 100 µM | Hs-578T > 100 µM | LOX IMVI > 100 µM

CC(=O)OCC1OC(n2c(C)c(C(C)=O)c(-c3ccc(Cl)cc3)c(C#N)c2=S)C(OC(C)=O)C(OC(C)=O)C1OC(C)=O (configuration not stated)
inactive: NCI/ADR-RES > 100 µM | A498 > 100 µM | U-251 > 100 µM | UACC-62 > 100 µM | SF-268 > 100 µM | A549 > 100 µM | SF-539 > 100 µM | K562 > 100 µM | HCC 2998 > 100 µM | HOP-92 > 100 µM | T47D > 100 µM | MDA-MB-231 > 100 µM | SK-OV-3 > 100 µM | DU-145 > 100 µM | ACHN > 100 µM | MOLT-4 > 100 µM | IGROV-1 > 100 µM | LOX IMVI > 100 µM

COc1ccc([C@]23CCC4(OCC(C)(C)CO4)[C@H]4CON(O[C@H](O[C@@H]5CCCCC5C(C)(C)c5ccccc5)C2)[C@@H]43)cc1OC (some centres not stated)
inactive: NCI/ADR-RES 31 µM | A498 48.1 µM | EKVX 34 µM | U-251 64 µM | UACC-62 30.4 µM | A549 42.3 µM | SF-539 5.81 µM | K562 21.5 µM | HCC 2998 > 100 µM | HOP-92 25.8 µM | T47D 20.2 µM | MDA-MB-231 81.7 µM | SK-OV-3 78.3 µM | DU-145 59.3 µM | MOLT-4 17.7 µM | IGROV-1 32.7 µM | LOX IMVI 57.5 µM

Cn1ncc2c(c1=O)Nc1ccccc1S2(=O)=O
inactive: A498 > 100 µM | EKVX > 100 µM | U-251 34.6 µM | UACC-62 > 100 µM | SF-268 > 100 µM | A549 > 100 µM | SF-539 21.6 µM | K562 > 100 µM | HCC 2998 > 100 µM | HOP-92 > 100 µM | SK-OV-3 > 100 µM | ACHN > 100 µM | MOLT-4 > 100 µM | IGROV-1 > 100 µM | LOX IMVI > 100 µM

C[C@]12CCC(=O)C=C1CC[C@@H]1[C@@H]2CC[C@]2(C)C(=O)/C(=C\c3ccccc3)C[C@@H]12
inactive: NCI/ADR-RES 14 µM | A498 15.6 µM | EKVX 19 µM | U-251 29.4 µM | UACC-62 23.4 µM | A549 22.6 µM | SF-539 21.6 µM | K562 > 100 µM | HCC 2998 17.4 µM | HOP-92 23.2 µM | T47D 17.5 µM | MDA-MB-231 > 50.8 µM | SK-OV-3 72.3 µM | DU-145 33.5 µM | ACHN 33.3 µM | MOLT-4 14 µM | IGROV-1 51.3 µM | LOX IMVI 21.2 µM

OC(c1ccccc1)c1c(-c2ccccc2)[nH]c(-c2ccccc2)c1C(O)c1ccccc1 (configuration not stated)
inactive: NCI/ADR-RES 2.69 µM | A498 3.79 µM | EKVX 3.21 µM | U-251 3.78 µM | UACC-62 2.84 µM | SF-268 4.16 µM | A549 3.73 µM | SF-539 2.95 µM | K562 2.03 µM | HCC 2998 7.24 µM | HOP-92 2.19 µM | T47D 4.86 µM | SK-OV-3 4.25 µM | DU-145 5.28 µM | ACHN 3.17 µM | MOLT-4 2.94 µM | IGROV-1 3.18 µM | Hs-578T 3.76 µM | LOX IMVI 2.19 µM

S=c1oc(CCCCCCCCc2nn(CNc3ccc(Cl)cc3)c(=S)o2)nn1CNc1ccc(Cl)cc1
inactive: NCI/ADR-RES > 100 µM | A498 > 100 µM | EKVX > 100 µM | U-251 > 100 µM | UACC-62 3.88 µM | SF-268 > 100 µM | A549 > 100 µM | K562 6.89 µM | HCC 2998 > 100 µM | HOP-92 > 100 µM | MDA-MB-231 > 100 µM | SK-OV-3 > 100 µM | DU-145 > 100 µM | ACHN 72.3 µM | MOLT-4 > 100 µM | IGROV-1 > 100 µM

COc1cc2c(cc1OC)C1c3ccccc3CCN1CCC2.[O-][Cl+3]([O-])([O-])O (configuration not stated)
inactive: NCI/ADR-RES > 100 µM | EKVX > 100 µM | U-251 > 100 µM | UACC-62 > 100 µM | SF-268 > 100 µM | A549 > 100 µM | SF-539 > 100 µM | K562 76 µM | HCC 2998 > 100 µM | T47D > 100 µM | MDA-MB-231 > 100 µM | SK-OV-3 > 100 µM | DU-145 > 100 µM | ACHN > 100 µM | MOLT-4 > 100 µM | IGROV-1 > 100 µM | LOX IMVI > 100 µM

COc1ccccc1NC(=S)N/N=C/c1cccc(C)n1
inactive: NCI/ADR-RES 3.31 µM | A498 23.6 µM | EKVX 4.67 µM | U-251 4.26 µM | UACC-62 3.67 µM | SF-268 6.97 µM | A549 4.16 µM | SF-539 4.89 µM | K562 1.27 µM | HCC 2998 10.5 µM | HOP-92 8.09 µM | MDA-MB-231 3.52 µM | SK-OV-3 6.55 µM | DU-145 4.29 µM | ACHN 2.71 µM | MOLT-4 1.34 µM | IGROV-1 4.06 µM | Hs-578T 11.5 µM | LOX IMVI 2.3 µM

CC(Oc1ccc2c(=O)cc(-c3ccccc3)oc2c1)C(=O)O (configuration not stated)
inactive: A498 > 100 µM | EKVX > 100 µM | U-251 > 100 µM | UACC-62 > 100 µM | SF-268 > 100 µM | A549 > 100 µM | SF-539 > 100 µM | K562 > 100 µM | HCC 2998 > 100 µM | HOP-92 > 100 µM | SK-OV-3 > 100 µM | ACHN > 100 µM | MOLT-4 > 100 µM | IGROV-1 > 100 µM | LOX IMVI > 100 µM

Brc1ccc(/C=N/C23CC4CC(CC(C4)C2)C3)cc1
inactive: A498 > 100 µM | EKVX > 100 µM | U-251 > 100 µM | UACC-62 > 100 µM | SF-268 > 100 µM | A549 > 100 µM | SF-539 > 100 µM | K562 > 100 µM | HCC 2998 > 100 µM | HOP-92 > 100 µM | SK-OV-3 > 100 µM | ACHN > 100 µM | MOLT-4 > 100 µM | IGROV-1 > 100 µM | LOX IMVI > 100 µM

COc1cc(OC)c2c(c1-c1ccc(C)cc1)CC(C)N(Cc1ccccc1)[C@H]2C (some centres not stated)
inactive: A498 87.7 µM | EKVX 43.9 µM | UACC-62 39.1 µM | SF-268 31.3 µM | A549 44.2 µM | SF-539 32.1 µM | K562 22.1 µM | HCC 2998 31.1 µM | T47D 23.8 µM | MDA-MB-231 51.3 µM | SK-OV-3 31.8 µM | DU-145 86.3 µM | ACHN 18.3 µM | MOLT-4 23.6 µM | IGROV-1 80.4 µM | Hs-578T 12.7 µM | LOX IMVI 36.2 µM

Cn1cc(C(=O)NCCC(=N)N)cc1NC(=O)C1=[N+](C)C=C(NC(=O)c2cccc(C(=O)NC3=CC(C(=O)Nc4cc(C(=O)NCCC(=N)N)cn4C)=[N+](C)C3)c2)C1
inactive: A498 > 100 µM | EKVX > 100 µM | U-251 > 100 µM | UACC-62 37.8 µM | SF-268 > 100 µM | A549 > 100 µM | SF-539 41.2 µM | K562 83.8 µM | HCC 2998 99.8 µM | HOP-92 > 100 µM | SK-OV-3 > 100 µM | ACHN > 100 µM | MOLT-4 > 100 µM | IGROV-1 > 100 µM | LOX IMVI > 100 µM

N#C/C(=C\c1c[nH]c2ccccc12)C(=O)c1ccc(O)c(O)c1
inactive: NCI/ADR-RES 20.5 µM | A498 41.6 µM | EKVX 34.8 µM | U-251 20.4 µM | UACC-62 28.8 µM | SF-268 39.7 µM | A549 26.1 µM | SF-539 25.6 µM | K562 23.2 µM | HCC 2998 32.5 µM | HOP-92 32.1 µM | T47D 31 µM | SK-OV-3 43.5 µM | DU-145 27.4 µM | ACHN 27.8 µM | MOLT-4 12.4 µM | IGROV-1 24.6 µM | Hs-578T 47.2 µM | LOX IMVI 23.7 µM

Cn1cc(C[C@@H](N)C(=O)O)c2ccccc21 [INDOXIMOD]
inactive: NCI/ADR-RES > 100 µM | A498 > 100 µM | EKVX > 100 µM | U-251 > 100 µM | UACC-62 > 100 µM | SF-268 > 100 µM | A549 > 100 µM | SF-539 > 100 µM | K562 > 100 µM | HCC 2998 > 100 µM | T47D > 100 µM | MDA-MB-231 > 100 µM | SK-OV-3 > 100 µM | DU-145 > 100 µM | ACHN > 100 µM | MOLT-4 > 100 µM | IGROV-1 > 100 µM | LOX IMVI > 100 µM
